Square brackets hold non-standard residues; d marks the D form. Ends that are not written are not given here. Peptide text beside a SMILES is read from it.

One series deals with Aedes aegypti larvae. As to the kind of experiment: Effect of feeding TMOF-R analogues on Aedes aegypti larvae (LC50). The series is classed as in vivo. The following applies: fed in microtiter plates with yeast particles for 5 to 6 days; read-out: LC50 (mM ± S.E.M.). Here is the method:
TMOF analogues (5 to 8 amino acids in length, and polymers of these analogues) in which Arg was added at the C-terminus were evaluated to determine their effect on larval growth and development. A series of analogues were synthesized and tested by feeding them to mosquito larvae at concentrations of (0.5 to 5.0 mg/ml; Table 4). Concentrations of 2.0 to 0.065 mg/ml were used to feed mosquito larvae and calculate the Lethal Dose at 50% mortality (LD50; Table 4) of the TMOF analogues. […] In both cases larval death and trypsin biosynthesis inhibition was noted (Table 4 and 5). […] The advantage of using short analogues connected by Arg is that they can be digested in the gut into short TMOF analogues that can penetrate the midgut much faster than longer analogues.
Individual, newly hatched Aedes aegypti larvae were maintained in separate microtiter wells on a diet of autoclaved yeast (1 mg/ml). The diet was supplemented with TMOF analogues (Table 4). An identical number of larvae were maintained on yeast served as a control. […] All control groups survived and larval growth and development were normal. Larvae that were fed TMOF analogues had increased mortality, particularly when the larvae where fed the concentrations of the analogues higher than 2 mg/ml (Table 4).
Since larvae swallow only a small portion of the yeast particles that adsorbed the analogues it is assumed that approximately I to 20 ng are taken orally at the high concentrations. Using the various concentrations a lethal concentration that caused 50% mortality (LC50) for the mosquito larvae was calculated (Table 4). The results presented in Table 4 clearly indicate that the short TMOF-R analogues are very effective, especially the (DPAR)4 (SEQ ID NO. 61) polymer that is broken into 4 DPARs (SEQ ID NO. 60) in the gut.
What is called LC50 is the concentration lethal to half of the exposed cells or organisms. As to `C[C@H](NC(=O)[C@@H]1CCCN1C(=O)[C@@H](N)CC(=O)O)C(=O)N[C@@H](CCCNC(=N)N)C(=O)O` [DPAR] (H-DPAR-OH), the LC50 is 0.46 ± 0.014 mM.

On to `N=C(N)NCCC[C@H](NC(=O)[C@@H]1CCCN1C(=O)[C@H](CC(=O)O)NC(=O)[C@@H](N)Cc1ccc(O)cc1)C(=O)O` [YDPR] (H-YDPR-OH; N-terminus and C-terminus assumed), for which the LC50 came to 0.24 ± 0.026 mM.

In the case of DPARDPARDPARDPAR [(DPAR)4], the LC50 came out at 0.048 ± 0.002 mM.

YDPAFR [YDPAFR]: the LC50 came out at 0.15 ± 0.023 mM.

Consider YDPAPPPPPPR [YDPAP6R], for which the LC50 was > 71.6 mM.

The next series concerns Aedes aegypti larvae. As to the kind of experiment: Effect of TMOF and its analogue peptides on mosquito larvae (feeding, LD50). Format: in vivo. The following applies: newly hatched larvae on autoclaved yeast 1 mg/ml, microtiter plates, 7 days. The text has this:
TMOF can traverse the gut epithelium, enter the hemolymph and bind a gut receptor (Borovsky, D. and F. Mahmood (1995) “Feeding the mosquito Aedes aegypti with TMOF and its analogs; effect on trypsin biosynthesis and egg development,” Regulatory Peptides57:273-281; Borovsky, et al. (1994) “Characterization and localization of mosquito-gut receptors for trypsin modulating oostatic factor using complementary peptide immunochemistry” FASEB J. 8:350-355.). […] To find out if truncated TMOF peptides have an effect on larval growth and development, a series of peptides were synthesized and tested by feeding them to mosquito larvae at concentrations of 0 to 5.0 mg/ml (Table 3). Individual, newly hatched Aedes aegypti larvae were maintained in separate microtiter wells on a diet of autoclaved yeast (1 mg/ml). The diet was supplemented with TMOF peptides (Table 3). An identical number of larvae maintained on yeast served as a control. […] All control groups survived and larval growth and development was normal. Since larvae swallow only a small portion of the yeast particles that adsorbed the peptides, it is assumed that approximately 1 to 20 ng are taken orally at the high concentrations.
As for `C[C@H](NC(=O)[C@@H]1CCCN1C(=O)[C@H](CC(=O)O)NC(=O)[C@H](N)Cc1ccc(O)cc1)C(=O)N1CCC[C@H]1C(=O)O` [(D)YDPAP] (H-[dY]DPAP-OH; N-terminus and C-terminus assumed), the “LD50 mM ± S.E.M.” value is listed as 0.56 ± 0.03 mM.

As to `N[C@H](Cc1ccc(O)cc1)C(=O)N[C@@H](CC(=O)O)C(=O)N1CCC[C@H]1C(=O)O` [(D)YDP] (H-[dY]-Asp-Pro-OH; N-terminus and C-terminus assumed), the “LD50 mM ± S.E.M.” value was found to be 0.51 ± 0.05 mM.

Consider `C[C@H](N)C(=O)N[C@@H](C)C(=O)N1CCC[C@H]1C(=O)O` [AAP] (H-Ala-Ala-Pro-OH; N-terminus and C-terminus assumed), for which the “LD50 mM ± S.E.M.” value came to 1.08 ± 0.07 mM.

In the case of `C[C@H](N)C(=O)N[C@@H](CC(=O)O)C(=O)N1CCC[C@H]1C(=O)O` [ADP] (H-Ala-Asp-Pro-OH; N-terminus and C-terminus assumed), the “LD50 mM ± S.E.M.” value was >6.6 mM.

As for `C[C@H](N)C(=O)N1CCC[C@H]1C(=O)N[C@@H](C)C(=O)O` [APA] (H-Ala-Pro-Ala-OH; N-terminus and C-terminus assumed), the “LD50 mM ± S.E.M.” value was 1.0 ± 0.07 mM.

With `C[C@H](NC(=O)[C@H](C)NC(=O)[C@@H](N)CC(=O)O)C(=O)O` [DAA] (H-Asp-Ala-Ala-OH; N-terminus and C-terminus assumed), the “LD50 mM ± S.E.M.” value is given as 0.91 ± 0.06 mM.

Regarding `C[C@H](NC(=O)[C@@H]1CCCN1C(=O)[C@@H](N)CC(=O)O)C(=O)O` [DPA] (H-Asp-Pro-Ala-OH), the “LD50 mM ± S.E.M.” value is on record as 0.4 ± 0.03 mM.

With `N[C@@H](CC(=O)O)C(=O)N[C@@H](Cc1ccc(O)cc1)C(=O)N1CCC[C@H]1C(=O)O` [DYP] (H-Asp-Tyr-Pro-OH; N-terminus and C-terminus assumed), the “LD50 mM ± S.E.M.” value is 1.27 ± 0.17 mM.

For `N[C@@H](CC(=O)O)C(=O)N[C@@H](Cc1ccc(O)cc1)C(=O)O` [DY] (H-Asp-Tyr-OH; N-terminus and C-terminus assumed), the “LD50 mM ± S.E.M.” value came to 3.0 ± 0.8 mM.

As to `C[C@H](NC(=O)[C@@H](N)Cc1ccccc1)C(=O)N1CCC[C@H]1C(=O)O` [FAP] (H-Phe-Ala-Pro-OH; N-terminus and C-terminus assumed), the “LD50 mM ± S.E.M.” value is given as 3.8 ± 0.23 mM.

Regarding `N[C@@H](Cc1ccccc1)C(=O)N[C@@H](CC(=O)O)C(=O)N1CCC[C@H]1C(=O)O` [FDP] (H-Phe-Asp-Pro-OH; N-terminus and C-terminus assumed), the “LD50 mM ± S.E.M.” value is given as 1.98 ± 0.6 mM.

As to `N[C@@H](Cc1ccccc1)C(=O)N[C@@H](CO)C(=O)N1CCC[C@H]1C(=O)O` [FSP] (H-Phe-Ser-Pro-OH; N-terminus and C-terminus assumed), the “LD50 mM ± S.E.M.” value was found to be 2.3 ± 0.13 mM.

In the case of `C[C@H](NC(=O)[C@H](C)NC(=O)[C@@H]1CCCN1)C(=O)O` [PAA] (H-Pro-Ala-Ala-OH; N-terminus and C-terminus assumed), the “LD50 mM ± S.E.M.” value is recorded as 2.4 ± 0.34 mM.

For the molecule `C[C@H](NC(=O)[C@@H]1CCCN1)C(=O)N1CCC[C@H]1C(=O)O` [PAP] (H-Pro-Ala-Pro-OH; N-terminus and C-terminus assumed), the “LD50 mM ± S.E.M.” value amounted to 3.17 ± 0.14 mM.

Consider `C[C@H](NC(=O)[C@@H]1CCCN1C(=O)[C@@H](CC(=O)O)NC(=O)[C@@H](N)Cc1ccc(O)cc1)C(=O)N1CCC[C@H]1C(=O)O` [Y(D)DPAP] (H-Y[dD]PAP-OH; N-terminus and C-terminus assumed), for which the “LD50 mM ± S.E.M.” value worked out at 1.2 ± 0.3 mM.

As to `N[C@@H](Cc1ccc(O)cc1)C(=O)N[C@H](CC(=O)O)C(=O)N1CCC[C@H]1C(=O)O` [Y(D)DP] (H-Tyr-[dD]-Pro-OH; N-terminus and C-terminus assumed), the “LD50 mM ± S.E.M.” value was 0.28 ± 0.01 mM.

For `C[C@H](NC(=O)[C@@H](N)Cc1ccc(O)cc1)C(=O)N1CCC[C@H]1C(=O)O` [YAP] (H-Tyr-Ala-Pro-OH; N-terminus and C-terminus assumed), the “LD50 mM ± S.E.M.” value worked out at 2.3 ± 0.5 mM.

Regarding `C[C@H](NC(=O)[C@H](CC(=O)O)NC(=O)[C@@H](N)Cc1ccc(O)cc1)C(=O)O` [YDA] (H-Tyr-Asp-Ala-OH; N-terminus and C-terminus assumed), the “LD50 mM ± S.E.M.” value came to 1.6 ± 0.13 mM.

On to `N[C@@H](Cc1ccc(O)cc1)C(=O)N[C@@H](CC(=O)O)C(=O)N[C@@H](Cc1ccccc1)C(=O)O` [YDF] (H-Tyr-Asp-Phe-OH; N-terminus and C-terminus assumed), for which the “LD50 mM ± S.E.M.” value stood at 0.97 ± 0.11 mM.

With `N[C@@H](Cc1ccc(O)cc1)C(=O)N[C@@H](CC(=O)O)C(=O)NCC(=O)O` [YDG] (H-Tyr-Asp-Gly-OH; N-terminus and C-terminus assumed), the “LD50 mM ± S.E.M.” value stood at 0.95 ± 0.11 mM.

As to `N[C@@H](Cc1ccc(O)cc1)C(=O)N[C@@H](CC(=O)O)C(=O)N1CCC[C@H]1C(=O)O` [YDP] (H-Tyr-Asp-Pro-OH; N-terminus and C-terminus assumed), the “LD50 mM ± S.E.M.” value was determined as 2.3 ± 0.4 mM.

For `N[C@@H](Cc1ccc(O)cc1)C(=O)N[C@@H](CC(=O)O)C(=O)O` [YD] (H-Tyr-Asp-OH; N-terminus and C-terminus assumed), the “LD50 mM ± S.E.M.” value amounted to 1.24 ± 0.06 mM.

As for `N[C@@H](Cc1ccc(O)cc1)C(=O)N[C@@H](CO)C(=O)N[C@@H](Cc1ccccc1)C(=O)O` [YSF] (H-Tyr-Ser-Phe-OH; N-terminus and C-terminus assumed), the “LD50 mM ± S.E.M.” value came to 1.08 ± 0.12 mM.

ADPAP [ADPAP]: the “LD50 mM ± S.E.M.” value is listed as 2.0 ± 0.36 mM.

FDPAP [FDPAP]: the “LD50 mM ± S.E.M.” value was determined as 0.37 ± 0.15 mM.

For the molecule MPDYPPPPP [MPDYP5], the “LD50 mM ± S.E.M.” value was >3.0 mM.

With YAPAP [YAPAP], the “LD50 mM ± S.E.M.” value is 0.54 ± 0.13 mM.

For the molecule YDAAP [YDAAP], the “LD50 mM ± S.E.M.” value worked out at 1.0 ± 0.18 mM.

Take YDFAP [YDFAP]: the “LD50 mM ± S.E.M.” value is reported as 0.74 ± 0.13 mM.

On to YDLAP [YDLAP], for which the “LD50 mM ± S.E.M.” value was 0.6 ± 0.05 mM.

Regarding YDPAA [YDPAA], the “LD50 mM ± S.E.M.” value was found to be 1.6 ± 0.13 mM.

Regarding YDPAF [YDPAF], the “LD50 mM ± S.E.M.” value was 0.33 ± 0.2 mM.

For the molecule YDPAL [YDPAL], the “LD50 mM ± S.E.M.” value is 0.52 ± 0.03 mM.

For the molecule YDPAP [YDPAP, reference compound], the “LD50 mM ± S.E.M.” value was 1.64 ± 0.03 mM.

In the case of YDPFP [YDPFP], the “LD50 mM ± S.E.M.” value was 1.7 ± 0.4 mM.

With YDPGP [YDPGP], the “LD50 mM ± S.E.M.” value is 1.1 ± 0.18 mM.

For YDPLP [YDPLP], the “LD50 mM ± S.E.M.” value came to 1.5 ± 0.04 mM.

Take YEPAP [YEPAP]: the “LD50 mM ± S.E.M.” value is 0.35 ± 0.02 mM.

Consider YFPAP [YFPAP], for which the “LD50 mM ± S.E.M.” value was determined as 0.64 ± 0.03 mM.

For YNPAP [YNPAP], the “LD50 mM ± S.E.M.” value is 0.55 ± 0.03 mM.

For YSPAP [YSPAP], the “LD50 mM ± S.E.M.” value was 1.4 ± 0.03 mM.

The next series deals with trypsin biosynthesis. The experiment in a line: Effect of injected TMOF-R analogues on trypsin biosynthesis in Heliothis virescens (BApNA). The following applies: 0.5 μg/injection, 2nd instar larvae, 24 hours after injection. Format: in vivo. Here is the method:
Individual second instar larvae of H. virescens were injected with TMOF-R analogues (10 to 0.25 μg per larva) and maintained in separate plastic cups on artificial diet. Twenty-four hours after the injections 3 groups of larvae (3 per group) were assayed for trypsin biosynthesis using BApNA (trypsin specific substrate; Table 5).
DPARDPARDPARDPAR [(DPAR)4]: the “Inhibition (% ± S.E.M.) of trypsin biosynthesis” value is recorded as 3 ± 0.3%.

The same series, now with this note: 1 μg/injection, 2nd instar larvae, 24 hours after injection.
As to `C[C@H](NC(=O)[C@@H]1CCCN1C(=O)[C@@H](N)CC(=O)O)C(=O)N[C@@H](CCCNC(=N)N)C(=O)O` [DPAR] (H-DPAR-OH), the “Inhibition (% ± S.E.M.) of trypsin biosynthesis” value turned out to be 17 ± 2%.

In the case of DPARDPARDPARDPAR [(DPAR)4], the “Inhibition (% ± S.E.M.) of trypsin biosynthesis” value was 35 ± 7%.

The series is the same for the next values; noted with them: 10 μg/injection, 2nd instar larvae, 24 hours after injection.
Consider `C[C@H](NC(=O)[C@@H]1CCCN1C(=O)[C@@H](N)CC(=O)O)C(=O)N[C@@H](CCCNC(=N)N)C(=O)O` [DPAR] (H-DPAR-OH), for which the “Inhibition (% ± S.E.M.) of trypsin biosynthesis” value is 100%.

With DPARDPARDPARDPAR [(DPAR)4], the “Inhibition (% ± S.E.M.) of trypsin biosynthesis” value is 58 ± 36%.

As to YDPAFR [YDPAFR], the “Inhibition (% ± S.E.M.) of trypsin biosynthesis” value turned out to be 0 ± 0%.

(Values after US6566129B1, “Transformed cells useful for the control of pests” (University of Florida Research Foundation, Inc., priority 1999, dated 2003).)
